Data on twelve compounds can be found in patent US11214578B2, “Urea/carbamates FAAH MAGL or dual FAAH/MAGL inhibitors and uses thereof” (Northeastern University, priority 2014, dated 2022).

The structures appear in SMILES notation. Read-outs that look alike come from different tables or passages of the source. Some results are limits rather than exact numbers.

Common to all, as to assay type: biochemical
The target in assay [1] is T1, Human MAGL (hMAGL) (Homo sapiens, UniProt Q99685).
T1 construct: hexahistidine; made in house; host or cells: E. coli
T1 sequence (Q99685 1-303): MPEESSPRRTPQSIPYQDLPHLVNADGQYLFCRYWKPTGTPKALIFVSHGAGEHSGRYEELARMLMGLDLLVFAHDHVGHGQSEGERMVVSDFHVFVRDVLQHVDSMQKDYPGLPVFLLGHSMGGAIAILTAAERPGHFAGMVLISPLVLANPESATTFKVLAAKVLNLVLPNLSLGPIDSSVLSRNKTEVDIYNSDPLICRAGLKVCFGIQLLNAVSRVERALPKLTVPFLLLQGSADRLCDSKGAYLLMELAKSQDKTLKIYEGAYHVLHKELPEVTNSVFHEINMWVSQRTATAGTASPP
The experiment in a line: Fluorescent assay protocol for hMAGL (AHMMCE substrate). In short, it runs like this:
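Hydrolysis of AHMMCE by human MAGL was monitored at 25°C for 120 min, with fluorescence at 360/460 nm recorded every 15 min and converted to 4-methylcoumarin using external standards. IC50 values were derived from triplicate wells at each inhibitor concentration.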

Assay [2] concerns the target T2, Human FAAH (MBPΔTMhFAAH) (Homo sapiens, UniProt O00519).
T2 construct: made in house; host or cells: E. coli (pMALcE4 vector)
T2 sequence (O00519 30-579 limits assumed): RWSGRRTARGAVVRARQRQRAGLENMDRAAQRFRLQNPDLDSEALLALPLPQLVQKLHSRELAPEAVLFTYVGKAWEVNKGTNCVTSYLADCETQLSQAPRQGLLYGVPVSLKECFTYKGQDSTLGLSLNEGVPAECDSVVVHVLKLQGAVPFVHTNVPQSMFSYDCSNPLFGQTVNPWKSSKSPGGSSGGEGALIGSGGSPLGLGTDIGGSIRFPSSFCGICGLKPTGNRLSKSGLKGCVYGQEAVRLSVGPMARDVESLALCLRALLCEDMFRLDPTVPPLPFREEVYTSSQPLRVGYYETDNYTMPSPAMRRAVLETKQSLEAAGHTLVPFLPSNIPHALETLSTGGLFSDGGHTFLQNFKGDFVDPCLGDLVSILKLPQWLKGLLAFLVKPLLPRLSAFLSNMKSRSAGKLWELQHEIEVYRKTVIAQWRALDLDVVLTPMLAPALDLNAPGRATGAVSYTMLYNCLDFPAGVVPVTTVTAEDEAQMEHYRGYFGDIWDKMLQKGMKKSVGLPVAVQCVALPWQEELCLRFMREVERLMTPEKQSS
Briefly: Fluorescent assay protocol for hFAAH. The settings on record: human FAAH (MBP fusion, ΔTM), procedure as for rFAAH. In short, it runs like this:
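MBP-fused ΔTM human FAAH from E. coli, pre-incubated 15 min at 25 °C with compound in 50 mM HEPES, 1 mM EDTA, 0.1% BSA, pH 7.4 (DMSO below 8%). Substrate AAMCA 20 μM (2×Km); fluorescence (ex 360/em 460) at 3 h gave % inhibition vs uninhibited control, triplicate, IC50 fitted.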

Assay [3] deals with T3, Rat MAGL (rMAGL) (Rattus norvegicus, UniProt Q8R431).
T3 construct: made in house; host or cells: E. coli
T3 sequence (Q8R431 1-303): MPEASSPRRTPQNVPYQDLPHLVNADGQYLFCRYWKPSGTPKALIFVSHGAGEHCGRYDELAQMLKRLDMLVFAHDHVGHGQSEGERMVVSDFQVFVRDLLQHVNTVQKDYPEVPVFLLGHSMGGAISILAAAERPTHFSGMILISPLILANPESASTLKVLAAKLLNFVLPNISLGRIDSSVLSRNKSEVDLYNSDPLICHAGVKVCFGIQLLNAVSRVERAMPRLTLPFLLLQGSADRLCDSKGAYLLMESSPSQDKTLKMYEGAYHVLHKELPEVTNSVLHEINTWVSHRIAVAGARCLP
Briefly: Fluorescent assay protocol for rMAGL. In short, it runs like this: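 Rat MAGL run as for the human enzyme: AHMMCE substrate hydrolysis to fluorescent coumarin followed at 25° C. for 120 min, read every 15 min at 360/460 nm.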

In assay [4] the target is T4, ΔTM rat FAAH (Rattus norvegicus, UniProt P97612).
T4 construct: Preparation of Transmembrane Domain-Deleted Rat FAAH (ΔTM rFAAH); made in house; host or cells: E. coli
T4 sequence (P97612 30-579 limits assumed): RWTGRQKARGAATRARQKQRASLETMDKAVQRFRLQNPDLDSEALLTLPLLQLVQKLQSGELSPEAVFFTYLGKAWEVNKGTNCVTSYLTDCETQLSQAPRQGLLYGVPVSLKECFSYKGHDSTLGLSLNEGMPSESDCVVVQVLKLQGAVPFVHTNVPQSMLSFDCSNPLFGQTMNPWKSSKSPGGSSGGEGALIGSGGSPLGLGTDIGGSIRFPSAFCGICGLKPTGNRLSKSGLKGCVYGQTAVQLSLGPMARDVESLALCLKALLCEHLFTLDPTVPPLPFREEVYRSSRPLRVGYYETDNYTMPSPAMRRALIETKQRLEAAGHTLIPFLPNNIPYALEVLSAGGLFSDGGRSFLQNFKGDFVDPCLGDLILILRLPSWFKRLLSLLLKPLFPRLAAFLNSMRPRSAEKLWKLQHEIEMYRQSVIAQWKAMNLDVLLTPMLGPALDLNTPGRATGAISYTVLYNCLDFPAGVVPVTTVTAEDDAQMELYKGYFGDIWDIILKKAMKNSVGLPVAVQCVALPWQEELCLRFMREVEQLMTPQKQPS
Briefly: Fluorescent assay protocol for ΔTM rat FAAH (AAMCA substrate). The settings on record: 15 min preincubation, read-out: IC50 rFAAH. In short, it runs like this: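 ΔTM rat FAAH (15 μg) was pre-incubated 15 min at 25° C with compound (screening at 1, 10 and 100 μM), then reacted with the fluorigenic substrate AAMCA. Percent inhibition came from fluorescence at 3 h (linear kinetics) relative to no-inhibitor controls, in triplicate.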

The mark [5] stands for this setting: recombinant human MAGL, AHMMCE substrate, 15 min preincubation, read-out: IC50 hMAGL.
[6] abbreviates: recombinant rat MAGL, procedure as for hMAGL, read-out: IC50 rMAGL.

As a reminder, the IC50 is the concentration that gives 50% inhibition. Regarding `O=C(Oc1cccc(C(F)(F)F)c1)N1CC(OCc2ccc(Cl)cc2)C1` [Example 75, 3-(Trifluoromethyl)phenyl 3-(4-chlorobenzyloxy)azetidine-1-carboxylate], the IC50 was 0.11 to 1 µM in assay [1] (setting [5]), 0.01 to 0.1 µM in assay [2], above 1 µM in assay [3] (setting [6]) and 0.01 to 0.1 µM in assay [4].
As to `O=C(Oc1cccc(Br)c1)N1CC(OCc2ccc(Cl)cc2)C1` [Example 76, 3-Bromophenyl 3-(4-chlorobenzyloxy)azetidine-1-carboxylate], the IC50 in assay [1] (setting [5]) was in the range of 0.11 to 1 µM; in assay [2], 0.01 to 0.1 µM; in assay [3] (setting [6]) it was 0.11 to 1 µM; in assay [4], 0.01 to 0.1 µM.
On to `NC(=O)c1cccc(OC(=O)N2CC(OCc3ccc(Cl)cc3)C2)c1` [Example 77, 3-Carbamoylphenyl 3-(4-chlorobenzyloxy)azetidine-1-carboxylate], for which the IC50 was 0.11 to 1 µM in assay [1] (setting [5]), 0.01 to 0.1 µM in assay [2], 0.11 to 1 µM in assay [3] (setting [6]) and 0.01 to 0.1 µM in assay [4].
For the compound `COc1cccc(OC(=O)N2CC(OCc3ccc(Br)cc3)C2)c1` [Example 78, 3-Methoxyphenyl 3-(4-Bromobenzyloxy)azetidine-1-carboxylate], the IC50 was above 1 µM in assay [1] (setting [5]), 0.01 to 0.1 µM in assay [2], above 1 µM in assay [3] (setting [6]) and 0.01 to 0.1 µM in assay [4].
As for `O=C(Oc1ccc(Cl)cc1Cl)N1CC(OCc2ccc(Cl)cc2)C1` [Example 79, 2,4-Dichlorophenyl 3-(4-chlorobenzyloxy)azetidine-1-carboxylate], the IC50 in assay [1] is 0.11 to 1 µM; in assay [2] it was 0.01 to 0.1 µM; in assay [3] it was 0.11 to 1 µM; in assay [4], 0.01 to 0.1 µM.
`O=C(Oc1cccc(-c2cccnc2)c1)N1CC(OCc2ccc(Cl)cc2)C1` [Example 80, 3-(Pyridin-3-yl)phenyl 3-(4-chlorobenzyloxy)azetidine-1-carboxylate]: the IC50 in assay [1] (setting [5]) is above 1 µM; in assay [2] it was 0.01 to 0.1 µM; in assay [3] (setting [6]), above 1 µM; in assay [4] it was 0.01 to 0.1 µM.
Consider `O=C(Nc1ccccc1)N1CC(OCc2ccc(Cl)cc2)C1` [Example 81, 3-(4-Chlorobenzyloxy)-N-phenylazetidine-1-carboxamide], for which the half-maximal inhibitory concentration (IC50) in assay [1] (setting [5]) was above 1 µM; in assay [2], 0.11 to 1 µM; in assay [3] (setting [6]), above 1 µM; in assay [4], 0.11 to 1 µM.
`O=C(Nc1cccnc1)N1CC(OCc2ccc(Br)cc2)C1` [Example 82, 3-(4-Bromobenzyloxy)-N-(pyridin-3-yl)azetidine-1-carboxamide]: the IC50 is above 1 µM in assay [1] (setting [5]), 0.11 to 1 µM in assay [2], above 1 µM in assay [3] (setting [6]) and 0.11 to 1 µM in assay [4].
As for `O=C(N1CC(N2CCC(c3ccccc3)CC2)C1)n1cnc2ccccc21` [Example 83, (1H-Benzo[d]imidazol-1-yl)(3-(4-phenylpiperidin-1-yl)azetidin-1-yl)methanone], the concentration for half-maximal inhibition (IC50) is above 1 µM in assay [1] (setting [5]), 0.01 to 0.1 µM in assay [2], above 1 µM in assay [3] (setting [6]) and 0.01 to 0.1 µM in assay [4].
In the case of `O=C(N1CC(N2CCC(Cc3ccccc3)CC2)C1)n1cnc(-c2ccccc2)c1` [Example 84, (3-(4-Benzylpiperidine)azetidin-1-yl)(4-phenyl[1H]imizadol-1-yl)methanone], the 50% inhibitory concentration (IC50) in assay [1] (setting [5]) was above 1 µM; in assay [2], 0.01 to 0.1 µM; in assay [3] (setting [6]), above 1 µM; in assay [4], 0.01 to 0.1 µM.
Regarding `O=C(N1CC(N2CCC(c3ccccc3)CC2)C1)n1cnc(-c2ccccc2)c1` [Example 85, (4-Phenyl-1H-imidazol-1-yl)(3-(4-phenylpiperidin-1-yl)azetidin-1-yl)methanone], the IC50 in assay [1] (setting [5]) is above 1 µM; in assay [2], 0.01 to 0.1 µM; in assay [3] (setting [6]), above 1 µM; in assay [4] it was 0.01 to 0.1 µM.
Take `O=C(N1CC(OCc2ccc(Br)cc2)C1)n1cnc(-c2ccccc2)c1` [Example 86, (3-(4-Bromobenzyloxy)azetidin-1-yl)(4-phenyl-1H-imidazol-1-yl)methanone]: the IC50 in assay [1] (setting [5]) was above 1 µM; in assay [2], 0.01 to 0.1 µM; in assay [3] (setting [6]), above 1 µM; in assay [4] it was 0.01 to 0.1 µM.
